Measured values published in PubChem BioAssay (NCI).
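Compound exposure: 48 hours, 5 concentrations, 96-well plates. TGI denotes the concentration required for complete inhibition of growth.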

What was measured:
Assay in all cases: NCI-60 cell line screen, 48 h
786-0 renal = test system: 786-0 renal
IGROV1 ovarian = test system: IGROV1 ovarian
OVCAR-8 ovarian = test system: OVCAR-8 ovarian
KM20L2 colon = test system: KM20L2 colon
HOP-92 NSCLC = test system: HOP-92 NSCLC
SF-539 CNS = test system: SF-539 CNS
HCT-15 colon = test system: HCT-15 colon
U251 CNS = test system: U251 CNS
HL-60(TB) leukemia = test system: HL-60(TB) leukemia
M14 melanoma = test system: M14 melanoma
NCI-H226 lung = test system: NCI-H226 lung
EKVX NSCLC = test system: EKVX NSCLC
A549 NSCLC = test system: A549 NSCLC
LXFL 529 NSCLC = test system: LXFL 529 NSCLC
OVCAR-4 ovarian = test system: OVCAR-4 ovarian
HCC-2998 colon = test system: HCC-2998 colon
A498 renal = test system: A498 renal
HOP-62 NSCLC = test system: HOP-62 NSCLC
SF-295 CNS = test system: SF-295 CNS
NCI-H23 lung = test system: NCI-H23 lung
K-562 leukemia = test system: K-562 leukemia
SF-268 CNS = test system: SF-268 CNS
SW-620 colon = test system: SW-620 colon
RXF 393 renal = test system: RXF 393 renal
HT29 colon = test system: HT29 colon
SNB-75 CNS = test system: SNB-75 CNS
DLD-1 colon = test system: DLD-1 colon
ACHN renal = test system: ACHN renal
UO-31 renal = test system: UO-31 renal
SN12C renal = test system: SN12C renal
SR leukemia = test system: SR leukemia
UACC-62 melanoma = test system: UACC-62 melanoma
COLO 205 colon = test system: COLO 205 colon
NCI-H522 lung = test system: NCI-H522 lung
SNB-19 CNS = test system: SNB-19 CNS
CCRF-CEM leukemia = test system: CCRF-CEM leukemia
DMS 273 small cell lung = test system: DMS 273 small cell lung
XF 498 CNS = test system: XF 498 CNS
MALME-3M melanoma = test system: MALME-3M melanoma
M19-MEL melanoma = test system: M19-MEL melanoma
RPMI-8226 leukemia = test system: RPMI-8226 leukemia
SK-MEL-5 melanoma = test system: SK-MEL-5 melanoma
SK-OV-3 ovarian = test system: SK-OV-3 ovarian
DMS 114 small cell lung = test system: DMS 114 small cell lung
HOP-18 NSCLC = test system: HOP-18 NSCLC
SK-MEL-28 melanoma = test system: SK-MEL-28 melanoma
SNB-78 CNS = test system: SNB-78 CNS
HCT-116 colon = test system: HCT-116 colon
UACC-257 melanoma = test system: UACC-257 melanoma
MOLT-4 leukemia = test system: MOLT-4 leukemia
OVCAR-3 ovarian = test system: OVCAR-3 ovarian
LOX IMVI melanoma = test system: LOX IMVI melanoma
KM12 colon = test system: KM12 colon
NCI-H460 lung = test system: NCI-H460 lung
RXF-631 renal = test system: RXF-631 renal
OVCAR-5 ovarian = test system: OVCAR-5 ovarian
SK-MEL-2 melanoma = test system: SK-MEL-2 melanoma
TK-10 renal = test system: TK-10 renal

## COc1ccc(/C(Cl)=C/c2ccc(Cl)c(Cl)c2)cc1
786-0 renal
  TGI: > 100 µM
IGROV1 ovarian
  TGI: > 100 µM
OVCAR-8 ovarian
  TGI: > 100 µM
KM20L2 colon
  TGI: 63.7 µM
HOP-92 NSCLC
  TGI: 78.7 µM
SF-539 CNS
  TGI: > 100 µM
HCT-15 colon
  TGI: 97.3 µM
U251 CNS
  TGI: 50.4 µM
HL-60(TB) leukemia
  TGI: 44.9 µM
M14 melanoma
  TGI: > 100 µM
NCI-H226 lung
  TGI: 53.2 µM
EKVX NSCLC
  TGI: 61.8 µM
A549 NSCLC
  TGI: 83.6 µM
LXFL 529 NSCLC
  TGI: > 100 µM
OVCAR-4 ovarian
  TGI: > 100 µM
HCC-2998 colon
  TGI: 43.2 µM
A498 renal
  TGI: 72.8 µM
HOP-62 NSCLC
  TGI: 79 µM
SF-295 CNS
  TGI: 74.9 µM
NCI-H23 lung
  TGI: 63 µM
K-562 leukemia
  TGI: > 100 µM
SF-268 CNS
  TGI: > 100 µM
SW-620 colon
  TGI: > 100 µM
RXF 393 renal
  TGI: 33.6 µM
HT29 colon
  TGI: 47.5 µM
SNB-75 CNS
  TGI: 99.7 µM
DLD-1 colon
  TGI: > 100 µM
ACHN renal
  TGI: 91.6 µM
UO-31 renal
  TGI: > 100 µM
SN12C renal
  TGI: > 100 µM
SR leukemia
  TGI: 47.9 µM
UACC-62 melanoma
  TGI: > 100 µM
COLO 205 colon
  TGI: 54 µM
NCI-H522 lung
  TGI: 41.1 µM
SNB-19 CNS
  TGI: > 100 µM
CCRF-CEM leukemia
  TGI: 47.8 µM
DMS 273 small cell lung
  TGI: 67.5 µM
XF 498 CNS
  TGI: 44.3 µM
MALME-3M melanoma
  TGI: 56.8 µM
M19-MEL melanoma
  TGI: > 100 µM
RPMI-8226 leukemia
  TGI: 53.9 µM
SK-MEL-5 melanoma
  TGI: 50.3 µM
SK-OV-3 ovarian
  TGI: > 100 µM
DMS 114 small cell lung
  TGI: 43.8 µM
HOP-18 NSCLC
  TGI: 88.9 µM
SK-MEL-28 melanoma
  TGI: > 100 µM
SNB-78 CNS
  TGI: 72.1 µM
HCT-116 colon
  TGI: 80.3 µM
UACC-257 melanoma
  TGI: 66.2 µM
MOLT-4 leukemia
  TGI: 37 µM

## CO[C@@]12CC(=O)/C(=C(O)\C=C\c3ccccc3)C(=O)[C@]1(OC)Cc1ccccc1O2
786-0 renal
  TGI: 70.2 µM
IGROV1 ovarian
  TGI: > 100 µM
OVCAR-8 ovarian
  TGI: 77.3 µM
KM20L2 colon
  TGI: 49.2 µM
HOP-92 NSCLC
  TGI: > 100 µM
SF-539 CNS
  TGI: 55.4 µM
HCT-15 colon
  TGI: 51.7 µM
U251 CNS
  TGI: 59.1 µM
M14 melanoma
  TGI: > 100 µM
NCI-H226 lung
  TGI: 50.2 µM
EKVX NSCLC
  TGI: > 100 µM
OVCAR-3 ovarian
  TGI: 55.9 µM
A549 NSCLC
  TGI: 88.8 µM
LXFL 529 NSCLC
  TGI: > 100 µM
OVCAR-4 ovarian
  TGI: > 100 µM
HCC-2998 colon
  TGI: 47 µM
A498 renal
  TGI: 90.7 µM
LOX IMVI melanoma
  TGI: > 100 µM
HOP-62 NSCLC
  TGI: 51.7 µM
SF-295 CNS
  TGI: > 100 µM
NCI-H23 lung
  TGI: 61.8 µM
K-562 leukemia
  TGI: > 100 µM
KM12 colon
  TGI: 46.6 µM
SF-268 CNS
  TGI: 91.1 µM
NCI-H460 lung
  TGI: 88.1 µM
SW-620 colon
  TGI: > 100 µM
RXF 393 renal
  TGI: 36.5 µM
HT29 colon
  TGI: > 100 µM
SNB-75 CNS
  TGI: > 100 µM
DLD-1 colon
  TGI: > 100 µM
ACHN renal
  TGI: 74.2 µM
RXF-631 renal
  TGI: > 100 µM
UO-31 renal
  TGI: > 100 µM
SN12C renal
  TGI: > 100 µM
UACC-62 melanoma
  TGI: 52.3 µM
COLO 205 colon
  TGI: > 100 µM
NCI-H522 lung
  TGI: 83.8 µM
SNB-19 CNS
  TGI: > 100 µM
CCRF-CEM leukemia
  TGI: 84.6 µM
OVCAR-5 ovarian
  TGI: 82.8 µM
XF 498 CNS
  TGI: > 100 µM
MALME-3M melanoma
  TGI: > 100 µM
M19-MEL melanoma
  TGI: > 100 µM
SK-MEL-2 melanoma
  TGI: > 100 µM
SK-MEL-5 melanoma
  TGI: > 100 µM
SK-OV-3 ovarian
  TGI: > 100 µM
DMS 114 small cell lung
  TGI: > 100 µM
HOP-18 NSCLC
  TGI: > 100 µM
SK-MEL-28 melanoma
  TGI: 59.8 µM
SNB-78 CNS
  TGI: > 100 µM
HCT-116 colon
  TGI: > 100 µM
TK-10 renal
  TGI: 73.4 µM
UACC-257 melanoma
  TGI: > 100 µM
MOLT-4 leukemia
  TGI: 96 µM
